These are literature values, as cited in patent US6417349B1, “Water-soluble extract of asiaticoside and madecassoside from Centella asiatica and isolating method thereof” (priority 1997, dated 2002).

Structures are written as SMILES.

The conditions of the data set: prior-art components.
Regarding `C[C@H]1[C@H](C)CC[C@]2(C(=O)O)CC[C@]3(C)C(=CC[C@@H]4[C@@]5(C)C[C@@H](O)[C@H](O)[C@@](C)(CO)[C@@H]5[C@H](O)C[C@]43C)[C@H]12` [madecassic acid], the solubility in water result is “water-insoluble”.
Turning to `C[C@H]1[C@H](C)CC[C@]2(C(=O)O)CC[C@]3(C)C(=CC[C@@H]4[C@@]5(C)C[C@@H](O)[C@H](O)[C@@](C)(CO)[C@@H]5CC[C@]43C)[C@H]12` [asiatic acid], the solubility in water entry is given as “water-insoluble”.
Regarding `CC1CCC2(C(=O)O)CCC3(C)C(=CCC4C5(C)CC(O)C(O)C(C)(C)C5C(O)CC43C)C2C1C` (stereo not drawn) [madasiatic acid], the solubility in water result is on record as “water-insoluble”.
